Test results reported in patent US8674109B2, “Pesticidal compositions” (Dow AgroSciences, LLC., priority 2009, dated 2014).

Legend:
Format in all cases: in vivo
[1] = test system: beet armyworm (BAW; Spodoptera exigua: Lepidoptera); assay: Insecticidal test for beet armyworm, 128-well diet tray assay
Method: Insecticidal Test for Beet Armyworm (Spodoptera exigua)
(§1) Bioassays on beet armyworm (BAW; Spodoptera exigua: Lepidoptera) were conducted using a 128-well diet tray assay. Three to five second instar BAW larvae were placed in each well (3 mL) of the diet tray that had been previously filled with 1 mL of artificial diet to which 50 μg/cm^2 of the test compound (dissolved in 50 μL of 90:10 acetone-water mixture) had been applied (to each of eight wells) and then allowed to dry. Trays were covered with a clear self-adhesive cover, and held at 25° C., 14:10 light-dark for six days. Percent mortality was recorded for the larvae in each well; activity in the eight wells was then averaged.

[2] = test system: corn earworm (CEW; Helicoverpa zea: Lepidoptera); assay: Insecticidal test for corn earworm, 128-well diet tray assay
Method: Insecticidal Test for Corn Earworm (Helicoverpa zea)
as §1, with “corn earworm (CEW; Helicoverpa zea:” for “beet armyworm (BAW; Spodoptera exigua:”, “CEW” for “BAW”

[3] = test system: green peach aphid (Myzus persicae); assay: Insecticidal test for green peach aphid in foliar spray assay on cabbage seedlings
Method: Insecticidal Test for Green Peach Aphid (Myzus persicae) in Foliar Spray Assay
Cabbage seedlings grown in 3-inch pots, with 2-3 small (3-5 cm) true leaves, were used as test substrate. The seedlings were infested with 20-50 green peach aphids (wingless adult and nymph) one day prior to chemical application. Four pots with individual seedlings were used for each treatment. Compounds (2 mg) were dissolved in 2 mL of acetone/methanol (1:1) solvent, forming stock solutions of 1000 ppm. The stock solutions were diluted 5× with 0.025% Tween 20 in H2O to obtain the solution at 200 ppm. A hand-held Devilbiss sprayer was used for spraying a solution to both sides of cabbage leaves until runoff. Reference plants (solvent check) were sprayed with the diluent only. Treated plants were held in a holding room for three days at approximately 25° C. and 40% relative humidity (RH) prior to grading. Evaluation was conducted by counting the number of live aphids per plant under a microscope. Insecticidal activity was measured by using Abbott's correction formula are presented in Table 2: Corrected % Control=100*(X−Y)/X
where • X=No. of live aphids on solvent check plants • Y=No. of live aphids on treated plants

| Compound | % Mortality BAW 50 μg/cm^2 [1] | % Mortality CEW 50 μg/cm^2 [2] | % Mortality GPA 200 ppm [3] |
| --- | --- | --- | --- |
| C#CC(C)(C)OC(=O)Nc1ccc(-c2ncn(-c3ccc(C(F)(F)F)cc3)n2)cc1 [Compound 13, {4-[1-(4-trifluoromethylphenyl)-1H-[1,2,4]triazol-3-yl]-phenyl}-carbamic acid 1,1-dimethyl-prop-2-ynyl ester] | A (50-100) | A (50-100) | B (Less than 80) |
| CC(OC(=O)Nc1ccc(-c2ncn(-c3ccc(OC(F)(F)F)cc3)n2)cc1)c1ccncc1 (stereo not drawn) [Compound 48] | A (50-100) | A (50-100) | B (Less than 80) |
| CC(OC(=O)Nc1ccc(-c2ncn(-c3ccc(C(F)(F)F)cc3)n2)cc1)c1ccc(C(F)(F)F)nc1 (stereo not drawn) [Compound 28] | A (50-100) | A (50-100) | B (Less than 80) |
| CC(C)(OC(=O)Nc1ccc(-c2ncn(-c3ccc(OC(F)(F)F)cc3)n2)cc1)c1ccccc1 [Compound 21] | A (50-100) | A (50-100) | B (Less than 80) |
| C=CC(OC(=O)Nc1ccc(-c2ncn(-c3ccc(OC(F)(F)F)cc3)n2)cc1)c1ccccc1 (stereo not drawn) [Compound 70] | A (50-100) | A (50-100) | B (Less than 80) |
| CC(OC(=O)Nc1ccc(-c2ncn(-c3ccc(C(F)(F)F)cc3)n2)cc1)c1ccc(C(F)(F)F)cc1 (stereo not drawn) [Compound 27, 1-(4-(trifluoromethyl)phenyl)ethyl 4-(1-(4-(trifluoromethyl)phenyl)-1H-1,2,4-triazol-3-yl)-phenylcarbamate] | A (50-100) | A (50-100) | B (Less than 80) |
| Cc1cccc(C(C)OC(=O)Nc2ccc(-c3ncn(-c4ccc(OC(F)(F)F)cc4)n3)cc2)n1 (stereo not drawn) [Compound 37] | A (50-100) | A (50-100) | B (Less than 80) |
| CC(OC(=O)Nc1ccc(-c2ncn(-c3ccc(OC(F)(F)F)cc3)n2)cc1)c1ccc(S(C)(=O)=O)cc1 (stereo not drawn) [Compound 75] | A (50-100) | A (50-100) | B (Less than 80) |
| C#CC(OC(=O)Nc1ccc(-c2ncn(-c3ccc(C(F)(F)F)cc3)n2)cc1)c1ccccc1 (stereo not drawn) [Compound 31] | A (50-100) | A (50-100) | B (Less than 80) |
| Cc1ccc2c(c1)CC(C)C(OC(=O)Nc1ccc(-c3ncn(-c4ccc(OC(F)(F)F)cc4)n3)cc1)O2 (stereo not drawn) [Compound 94] | A (50-100) | A (50-100) | B (Less than 80) |
| CCC(OC(=O)Nc1ccc(-c2ncn(-c3ccc(OC(F)(F)F)cc3)n2)cc1)c1ccc(C(F)(F)F)cc1 (stereo not drawn) [Compound 67] | A (50-100) | A (50-100) | B (Less than 80) |
| Cc1ccccc1C(C)OC(=O)Nc1ccc(-c2ncn(-c3ccc(OC(F)(F)F)cc3)n2)cc1 (stereo not drawn) [Compound 93] | A (50-100) | A (50-100) | B (Less than 80) |
| CC1(OC(=O)Nc2ccc(-c3ncn(-c4ccc(OC(F)(F)F)cc4)n3)cc2)Cc2ccccc2C1 [Compound 108] | B (Less than 50) | B (Less than 50) | B (Less than 80) |
| CC(OC(=O)Nc1ccc(-c2ncn(-c3ccc(OC(F)(F)F)cc3)n2)cc1)c1ccc(Cl)cc1 (stereo not drawn) [Compound 81] | A (50-100) | A (50-100) | B (Less than 80) |
| CC(OC(=O)Nc1ccc(-c2ncn(-c3ccc(OC(F)(F)F)cc3)n2)cc1)c1cnc(C(F)(F)F)nc1 (stereo not drawn) [Compound 57] | A (50-100) | A (50-100) | B (Less than 80) |
| CC(OC(=O)Nc1ccc(-c2ncn(-c3ccc(OC(F)(F)F)cc3)n2)cc1)C1CCCCC1 (stereo not drawn) [Compound 16] | B (Less than 50) | B (Less than 50) | B (Less than 80) |

| Compound | % Mortality BAW 50 μg/cm^2 [1] | % Mortality CEW 50 μg/cm^2 [2] | % Mortality GPA 200 ppm [3] |
| --- | --- | --- | --- |
| CC(C)CC(OC(=O)Nc1ccc(-c2ncn(-c3ccc(OC(F)(F)F)cc3)n2)cc1)c1ccccc1 (stereo not drawn) [Compound 78] | A (50-100) | A (50-100) | B (Less than 80) |
| C#CC(OC(=O)Nc1ccc(-c2ncn(-c3ccc(OC(F)(F)F)cc3)n2)cc1)c1ccc(C(F)(F)F)cc1 (stereo not drawn) [Compound 66] | A (50-100) | A (50-100) | B (Less than 80) |
| O=C(Nc1ccc(-c2ncn(-c3ccc(OC(F)(F)F)cc3)n2)cc1)Oc1ccccc1C(F)(F)F [Compound 124] | A (50-100) | A (50-100) | B (Less than 80) |
| CC(C)c1ccc(C(C)OC(=O)Nc2ccc(-c3ncn(-c4ccc(OC(F)(F)F)cc4)n3)cc2)cc1 (stereo not drawn) [Compound 38] | A (50-100) | A (50-100) | B (Less than 80) |
| CCCC(C)(C)OC(=O)Nc1ccc(-c2ncn(-c3ccc(OC(F)(F)F)cc3)n2)cc1 [Compound 6] | A (50-100) | B (Less than 50) | B (Less than 80) |
| CC(Cc1ccccc1)OC(=O)Nc1ccc(-c2ncn(-c3ccc(OC(F)(F)F)cc3)n2)cc1 (stereo not drawn) [Compound 107] | A (50-100) | A (50-100) | B (Less than 80) |
| CCCC(OC(=O)Nc1ccc(-c2ncn(-c3ccc(OC(F)(F)F)cc3)n2)cc1)c1ccccc1 (stereo not drawn) [Compound 74] | A (50-100) | A (50-100) | B (Less than 80) |
| CC(OC(=O)Nc1ccc(-c2ncn(-c3ccc(OC(F)(F)F)cc3)n2)cc1)c1ccc(Br)cc1 (stereo not drawn) [Compound 39] | A (50-100) | A (50-100) | B (Less than 80) |
| CCOc1cnc(C(C)(C)OC(=O)Nc2ccc(-c3ncn(-c4ccc(OC(F)(F)F)cc4)n3)cc2)nc1 [Compound 3, {4-[1-(4-trifluoromethoxyphenyl)-1H-[1,2,4]triazol-3-yl]-phenyl}-carbamic acid 1-(5-ethoxy-pyrimidin-2-yl)-1-methyl-ethyl ester] | A (50-100) | B (Less than 50) | B (Less than 80) |
| CC(C)(CCl)OC(=O)Nc1ccc(-c2ncn(-c3ccc(OC(F)(F)C(F)(F)F)cc3)n2)cc1 [Compound 32] | A (50-100) | A (50-100) | B (Less than 80) |
| CC(OC(=O)Nc1ccc(-c2ncn(-c3ccc(OC(F)(F)F)cc3)n2)cc1)c1cnc(Cl)s1 (stereo not drawn) [Compound 54] | A (50-100) | A (50-100) | B (Less than 80) |
| CCC(OC(=O)Nc1ccc(-c2ncn(-c3ccc(OC(F)(F)F)cc3)n2)cc1)c1ccc(F)cc1 (stereo not drawn) [Compound 79] | A (50-100) | A (50-100) | B (Less than 80) |
| CC(OC(=O)Nc1ccc(-c2ncn(-c3ccc(OC(F)(F)F)cc3)n2)cc1)c1ccccc1 (stereo not drawn) [Compound 59] | A (50-100) | A (50-100) | B (Less than 80) |
| COC(=S)Nc1ccc(-c2ncn(-c3ccc(OC(F)(F)F)cc3)n2)cc1 [Compound 132, O-methyl 4-(1-(4-(trifluoromethoxy)phenyl)-1H-1,2,4-triazol-3-yl)phenylcarbamothioate] | A (50-100) | B (Less than 50) | B (Less than 80) |
| C#CC(OC(=O)Nc1ccc(-c2ncn(-c3ccc(OC(F)(F)F)cc3)n2)cc1)c1ccccc1 (stereo not drawn) [Compound 82] | A (50-100) | A (50-100) | B (Less than 80) |
| CCC(OC(=O)Nc1ccc(-c2ncn(-c3ccc(OC(F)(F)F)cc3)n2)cc1)c1cccc(Cl)c1 (stereo not drawn) [Compound 65] | A (50-100) | A (50-100) | B (Less than 80) |
